The values below come from patent US20260274814A1, “THIENYL COMPOUNDS FOR THE TREATMENT OF A CENTRAL NERVOUS SYSTEM DISEASE OR DISORDER” (Coreterra Therapeutics, Inc., priority 2023, published 2026).

Each structure is given as a SMILES string. Counter-ions that a name gives are not always drawn. Like-named read-outs stand apart in the source and are kept apart here.

For the experiment, the system named is mice. Kind of experiment: Neuropharmacological Assay (SmartCube): automated behavioral signature of compound-treated mice compared with a database of reference drug classes. It is filed as in vivo. The note with it: for minimal effective dose: Mus musculus, ip; for AD / AG / AN / AP / AX / CE / HL / MS / PS / SH / UK: 3.0 mg/kg i.p., 15 min before test. The method, boiled down:
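i.p. dosing 15 min pre-test (NMP/PEG/propylene glycol vehicle); 3 doses, 3.0 mg/kg reported. Output = class-match probability per behavioural effect. Potency runs 0.3, 1, 3, 10 mpk (range adjusted as needed); MED = dose with ≥45% total activity.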

[1] abbreviates: minimal effective dose: dose having 45% or more total activity in SmartCube, i.p., if only one dose tested, that dose is shown, read-out: MED.
[2] abbreviates: SmartCube class probability, hydrochloride, 3 mg/kg.
The mark [3] stands for this setting: dose having 45% or more total activity in SmartCube, i.p., if only one dose was tested, that dose is shown, hydrochloride.
The mark [4] stands for this setting: probability that activity matches this class of agents.
Where [5] appears, read: probability that activity matches this class of agents, hydrochloride, 3 mg/kg.
[6] abbreviates: dose having 45% or more total activity in SmartCube, i.p., if only one dose was tested, that dose is shown, read-out: MED (minimal effective dose).

For `CNC1COc2csc(C(F)(F)F)c2C1` (single isomer, unassigned) [Compound 258, N-methyl-5-(trifluoromethyl)-3,4-dihydro-2H-thieno[3,4-b]pyran-3-amine hydrochloride], the minimal effective dose under setting [1] was over 3 mg/kg. For the setting “SmartCube class probability”, the AD result was “ND (^ <4%)”, the AG entry is listed as “ND (^ <4%)”, the AN result is “ND (^ <4%)” and the AP entry is reported as “ND (^ <4%)”. For the same compound, under “SmartCube class probability”, the AX result is reported as “ND (^ <4%)”, the CE result is recorded as “ND (^ <4%)”, the HL result is listed as “ND (^ <4%)” and the MS entry is “ND (^ <4%)”. For the same compound, under “SmartCube class probability”, the PS entry is on record as “ND (^ <4%)” and the SH result is “ND (^ <4%)”. Under setting [2], the UK entry is “+ (≥4%)”.

Regarding `CCc1csc2c1CC(NC)CC2` (single isomer, unassigned) [Compound 251, 3-ethyl-N-methyl-4,5,6,7-tetrahydrobenzothiophen-5-amine hydrochloride], the minimal effective dose under setting [1] is over 3 mg/kg. Moreover, under “SmartCube class probability”, the AD result was “ND (^ <4%)”, the AG result is “ND (^ <4%)”, the AN entry is listed as “ND (^ <4%)” and the AX entry is “ND (^ <4%)”. In addition, where the note is “SmartCube class probability”, the HL entry is recorded as “ND (^ <4%)”, the MS entry is “ND (^ <4%)” and the SH result is given as “ND (^ <4%)”. Further, under setting [2], the AP entry is given as “ND (^ <4%)” and the UK result is reported as “++ (≥24%)”.

As for `CNC1CCc2c(sc(Cl)c2C)C1` (single isomer, unassigned) [Compound 147, 2-chloro-N, 3-dimethyl-4,5,6,7-tetrahydrobenzothiophen-6-amine hydrochloride], the minimal effective dose under setting [1] came to 3 mg/kg. For the same compound, where the note is “SmartCube class probability”, the AG result is listed as “ND (^ <4%)”, the CE result is on record as “ND (^ <4%)”, the MS result is “ND (^ <4%)” and the PS result was “ND (^ <4%)”. Moreover, the SH entry (SmartCube class probability) was “ND (^ <4%)”. For the same compound, under setting [2], the AD entry is “ND (^ <4%)”, the AN result is reported as “+ (≥4%)”, the AP result is reported as “ND (^ <4%)” and the AX entry is “ND (^ <4%)”. Besides, under setting [2], the HL entry was “+ (≥4%)” and the UK result is on record as “+++ (≥49%)”.

Take `NC1CCc2cscc2C1` (single isomer, unassigned) [Compound 166, 4,5,6,7-tetrahydro-2-benzothiophen-5-amine hydrochloride]: under setting [1], the minimal effective dose was found to be 1 mg/kg. For the same compound, under “SmartCube class probability”, the AG entry was “ND (^ <4%)”, the AN entry is on record as “ND (^ <4%)”, the AX entry is “+++ (≥49%)” and the CE result is given as “ND (^ <4%)”. Further, for the setting “SmartCube class probability”, the HL result is “ND (^ <4%)”, the MS entry is listed as “ND (^ <4%)”, the SH result was “ND (^ <4%)” and the UK result is recorded as “ND (^ <4%)”. In addition, under setting [2], the AD result was “+ (≥4%)”, the AP result is listed as “++ (≥24%)” and the PS result was “ND (^ <4%)”.

Take `CCc1scc2c1CC(NC)CC2` (single isomer, unassigned) [Compound 116, 3-ethyl-N-methyl-4,5,6,7-tetrahydro-2-benzothiophen-5-amine hydrochloride]: the “MED (minimal effective dose)” value under setting [3] is listed as under 3 mpk. Further, under setting [4], the AD entry is given as “ND (^ <4%)”, the AG entry is “ND (^ <4%)”, the AN result is reported as “ND (^ <4%)” and the AX entry is on record as “ND (^ <4%)”. In addition, under setting [4], the CE result is on record as “ND (^ <4%)”, the HL result is “ND (^ <4%)”, the MS entry is on record as “ND (^ <4%)” and the PS result is recorded as “ND (^ <4%)”. In addition, under setting [4], the SH result is reported as “ND (^ <4%)” and the UK entry is given as “ND (^ <4%)”. Also, the AP entry under setting [5] is recorded as “ND (^ <4%)”.

On to `c1scc2c1CCC(NC1COC1)C2` (single isomer, unassigned) [Compound 128, N-(4,5,6,7-tetrahydro-2-benzothiophen-5-yl)oxetan-3-amine], for which the minimal effective dose under setting [6] came to 10 mg/kg. Under setting [4], the AD entry is “ND (^ <4%)”, the AG entry was “ND (^ <4%)”, the AN entry is “ND (^ <4%)” and the AP entry is “ND (^ <4%)”. Further, under setting [4], the AX result is reported as “ND (^ <4%)”, the CE result is listed as “ND (^ <4%)”, the HL result is “ND (^ <4%)” and the MS entry was “ND (^ <4%)”. Also, under setting [4], the PS entry is given as “ND (^ <4%)”, the SH entry was “ND (^ <4%)” and the UK result is recorded as “+ (≥4%)”.

With `CNC1COc2cscc2C1` (single isomer, unassigned) [Compound 52, N-methyl-3,4-dihydro-2H-thieno[3,4-b]pyran-3-amine hydrochloride], the “MED (minimal effective dose)” value under setting [3] is on record as 3.0 mpk. For the same compound, under setting [4], the AD result is reported as “ND (^ <4%)”, the AG entry was “ND (^ <4%)”, the AN entry was “ND (^ <4%)” and the CE result was “ND (^ <4%)”. Under setting [4], the HL entry is recorded as “ND (^ <4%)”, the MS result was “ND (^ <4%)”, the PS result is reported as “ND (^ <4%)” and the SH entry is “ND (^ <4%)”. Further, the UK result under setting [4] is “+ (≥4%)”. Further, under setting [5], the AP entry is listed as “+++ (≥49%)” and the AX entry was “++ (≥24%)”.

Consider `CNC1CCc2scc(C)c2C1.Cl` (single isomer, unassigned) [Compound 70, N, 3-dimethyl-4,5,6,7-tetrahydrobenzothiophen-5-amine hydrochloride], for which the “MED (minimal effective dose)” value under setting [3] came out at 1 mpk. Besides, under setting [4], the AD result is listed as “ND (^ <4%)”, the AG entry is given as “ND (^ <4%)”, the AN result was “ND (^ <4%)” and the CE result was “ND (^ <4%)”. Under setting [4], the HL entry is given as “ND (^ <4%)”, the MS entry is reported as “ND (^ <4%)”, the PS result was “ND (^ <4%)” and the SH result is on record as “ND (^ <4%)”. Under setting [5], the AP result was “+++ (≥49%)”, the AX entry is “+ (≥4%)” and the UK entry was “ND (^ <4%)”.

Turning to `c1scc2c1CCC(NC1COC1)C2` (single isomer, unassigned) [Compound 129, N-(4,5,6,7-tetrahydro-2-benzothiophen-5-yl)oxetan-3-amine], the “MED (minimal effective dose)” value (dose having 45% or more total activity in SmartCube, i.p., if only one dose was tested, that dose is shown) amounted to 10 mpk. For the same compound, under setting [4], the AD result is on record as “ND (^ <4%)” and the UK entry was “+ (≥4%)”.

As for `NC1CCc2sccc2C1` (single isomer, unassigned) [Compound 213, 4,5,6,7-tetrahydrobenzothiophen-5-amine hydrochloride], where the note is “SmartCube class probability”, the AG result is listed as “ND (^ <4%)”, the AN entry is “ND (^ <4%)”, the AP result is recorded as “+ (≥4%)” and the HL result is “ND (^ <4%)”. Besides, for the setting “SmartCube class probability”, the MS entry was “ND (^ <4%)”, the PS entry is “ND (^ <4%)” and the UK result is given as “ND (^ <4%)”. Also, under setting [2], the AD entry is “+ (≥4%)”, the AX entry is reported as “+++ (≥49%)”, the CE result is given as “ND (^ <4%)” and the SH entry is on record as “+ (≥4%)”. Further, the MED (minimal effective dose: dose having 45% or more total activity in SmartCube, i.p., if only one dose tested, that dose is shown) worked out at 1 mpk.

With `CNC1CCc2c(sc(C(F)(F)F)c2C)C1` (stereo not shown) [Compound 91, N, 3-dimethyl-2-(trifluoromethyl)-4,5,6,7-tetrahydrobenzothiophen-6-amine hydrochloride], the minimal effective dose under setting [6] is over 3 mg/kg. For the same compound, under setting [4], the AD entry is on record as “ND (^ <4%)”, the AG entry is on record as “ND (^ <4%)”, the AN result is recorded as “ND (^ <4%)” and the AP entry was “ND (^ <4%)”. In addition, under setting [4], the AX result is “ND (^ <4%)”, the CE entry was “ND (^ <4%)”, the HL entry was “ND (^ <4%)” and the MS entry is on record as “ND (^ <4%)”. Besides, under setting [4], the PS entry was “ND (^ <4%)”, the SH entry is recorded as “ND (^ <4%)” and the UK result is “++ (≥24%)”.

Take `CNC1CCc2scc(C(F)(F)F)c2C1.Cl` (single isomer, unassigned) [Compound 194, N-methyl-3-(trifluoromethyl)-4,5,6,7-tetrahydrobenzothiophen-5-amine hydrochloride]: under setting [1], the minimal effective dose was 3 mg/kg. Under “SmartCube class probability”, the AD entry is given as “ND (^ <4%)”, the AG entry is “ND (^ <4%)”, the AN result is “ND (^ <4%)” and the AX result is “ND (^ <4%)”. In addition, under “SmartCube class probability”, the CE result is “ND (^ <4%)”, the HL result was “ND (^ <4%)”, the MS entry is listed as “ND (^ <4%)” and the PS result was “ND (^ <4%)”. For the setting “SmartCube class probability”, the SH entry is recorded as “ND (^ <4%)”. For the same compound, under setting [2], the AP entry is reported as “++++ (≥74%)” and the UK result is reported as “ND (^ <4%)”.

Take `CNC1CCc2scc(C3CC3)c2C1` (single isomer, unassigned) [Compound 249, 3-cyclopropyl-N-methyl-4,5,6,7-tetrahydrobenzothiophen-5-amine hydrochloride]: the minimal effective dose under setting [1] is 3 mg/kg. Moreover, for the setting “SmartCube class probability”, the AD result was “ND (^ <4%)”, the AG entry is recorded as “ND (^ <4%)”, the AN entry is recorded as “ND (^ <4%)” and the CE entry is reported as “ND (^ <4%)”. In addition, under “SmartCube class probability”, the HL entry was “ND (^ <4%)”, the MS entry is listed as “ND (^ <4%)”, the PS result is given as “ND (^ <4%)” and the SH entry is “ND (^ <4%)”. For the same compound, under setting [2], the AP entry was “ND (^ <4%)”, the AX entry is reported as “ND (^ <4%)” and the UK result is listed as “++ (≥24%)”.
